A word on the IC50: it is the concentration at which inhibition is half-maximal.

Experimental findings from ChEMBL document CHEMBL4418493, “N-hydroxyformamide compounds and compositions comprising them for use as BMP1, TLL1 and/or TLL2 inhibitors” (2018) are described below.

Where only a bound is given, the exact number is not on record here.

Data set [1] can be described thus: Drug metabolism in heparinized pooled human plasma at pH 7.5 assessed as formation of (S)-2-(2-(carboxymethoxy)-4-(5-((((R)-2-((R)-1-(N-hydroxyformamido)propyl)heptanamido)methyl)carbamoyl)furan-2-yl)benzamido)succinic acid at 100 to 2000 ng/ml incubated up to 4 or 24 hrs by LC-MS/MS analysis. To be noted: pH 7.5, 24 h. The format is ADME, cell-free.
Data set [2] can be described thus: Reduction in PICP levels in human cardiac fibroblasts incubated for 24 to 48 hrs by ELISA. In kind it is functional.
A short description of data set [3]: Reduction in mature collagen deposition levels in human cardiac fibroblasts incubated for 24 to 48 hrs by immunostaining based assay. The format is functional.
Data set [4] is described as follows: Drug metabolism in heparinized pooled human plasma at pH 7.5 assessed as formation of (S)-2-(2-ethoxy-4-(5-((((R)-2-((R)-1-(N-hydroxyformamido)propyl)heptanamido)methyl) carbamoyl)furan-2-yl)benzamido)succinic acid at 100 to 2000 ng/ml incubated up to 4 or 24 hrs by LC-MS/MS analysis. The format is ADME, cell-free. To be noted: pH 7.5, 24 h.
Data set [5] is described as follows: Drug metabolism in heparinized pooled human plasma at pH 7.5 assessed as formation of (3-ethoxy-5-(5-((((R)-2-((R)-1-(N-hydroxyformamido)propyl)heptanamido)methyl)carbamoyl) furan-2-yl)phenyl)phosphonic acid at 100 to 2000 ng/ml incubated up to 4 or 24 hrs by LC-MS/MS analysis. In kind it is ADME, cell-free. To be noted: pH 7.5, 24 h.
Data set [6] can be described thus: Drug metabolism in heparinized pooled human plasma at pH 7.5 assessed as conversion to active compound at 100 to 2000 ng/ml incubated for 4 by LC-MS/MS analysis. In kind it is ADME, cell-free.

For the compound `CCCCC[C@@H](C(=O)NCNC(=O)c1ccc(-c2ccc(C(=O)N[C@@H](CC(=O)O)C(=O)O)c(OCC(=O)O)c2)o1)[C@@H](CC)N(C=O)OC(=O)c1ccc(OC)cc1C.N.N.N`, in data set [1], the Drug metabolism result was “Metabolite_Detected”. Also, the IC50 in data set [2] is < 3.98 µM; in data set [3] it was < 1 µM.
Consider `CCCCC[C@@H](C(=O)NCNC(=O)c1ccc(-c2ccc(C(=O)N[C@@H](CC(=O)O)C(=O)O)c(OCC)c2)o1)[C@@H](CC)N(C=O)OC(=O)c1ccc(-n2cnnc2)cc1`, for which the figures for the IC50 in data set [2] and in data set [3] were < 3.98 µM and < 1 µM, respectively. In addition, in data set [4], the Drug metabolism entry is on record as “Metabolite_Detected”.
With `CCCCC[C@@H](C(=O)NCNC(=O)c1ccc(-c2ccc(C(=O)N[C@@H](CC(=O)O)C(=O)O)c(OCC)c2)o1)[C@@H](CC)N(C=O)OC(=O)c1ccc(OC)cc1OC(F)(F)F`, the IC50 in data set [2] is < 3.98 µM; in data set [3], < 1 µM. In data set [4], the Drug metabolism result was “Metabolite_Detected”.
Turning to `CCCCC[C@@H](C(=O)NCNC(=O)c1ccc(-c2cc(OCC)cc(P(=O)(O)O)c2)o1)[C@@H](CC)N(C=O)OC(=O)Nc1ccccc1`, the Drug metabolism result in data set [5] is “Metabolite_Detected”. Moreover, in data set [2], the IC50 is < 3.98 µM.
As to `CCCCC[C@@H](C(=O)NCNC(=O)c1ccc(-c2cc(OCC)cc(P(=O)(O)O)c2)o1)[C@@H](CC)N(C=O)OC(=O)c1ccc(CN2CCOCC2)cc1C`, the Drug metabolism entry in data set [5] was “Metabolite_Detected”. Also, the IC50 in data set [2] is < 3.98 µM.
As to `CCCCC[C@@H](C(=O)NCNC(=O)c1ccc(-c2cc(OCC)cc(P(=O)(O)O)c2)o1)[C@@H](CC)N(C=O)OC(=O)c1ccc2c(c1)OCCN2C`, in data set [5], the Drug metabolism result is “Metabolite_Detected”. Besides, in data set [2], the IC50 was < 3.98 µM.
On to `CCCCC[C@@H](C(=O)NCNC(=O)c1ccc(-c2ccc(C(=O)N[C@@H](CC(=O)O)C(=O)O)c(OCC)c2)o1)[C@@H](CC)N(C=O)OC(=O)c1ccccc1C`, for which the IC50 is < 3.98 µM in data set [2] and < 1 µM in data set [3]. The Drug metabolism entry in data set [4] is recorded as “Metabolite_Detected”.
For the compound `CCCCC[C@@H](C(=O)NCNC(=O)c1ccc(-c2cc(OCC)cc(P(=O)(O)O)c2)o1)[C@@H](CC)N(C=O)OC(=O)c1ccc(CN2CCOCC2)cc1`, in data set [5], the Drug metabolism entry is recorded as “Metabolite_Detected”. The IC50 in data set [2] was < 3.98 µM.
Take `CCCCC[C@@H](C(=O)NCNC(=O)c1ccc(-c2cc(OCC)cc(P(=O)(O)O)c2)o1)[C@@H](CC)N(C=O)OC(=O)c1ccc2c(c1)OCCO2`: the Drug metabolism result in data set [5] is on record as “Metabolite_Detected”. Also, the values for the IC50 in data set [2] and in data set [3] were < 3.98 µM and < 1 µM, respectively.
Take `CCCCC[C@@H](C(=O)NCNC(=O)c1ccc(-c2ccc(C(=O)N[C@@H](CC(=O)O)C(=O)O)c(OCC)c2)o1)[C@@H](CC)N(C=O)OC(=O)NC(C)(C)C`: the IC50 in data set [2] is < 3.98 µM; in data set [3] it was < 1 µM. Besides, in data set [4], the Drug metabolism entry is “Metabolite_Detected”.
Taken in the same sequence, the figures for `CCCCC[C@@H](C(=O)NCNC(=O)c1ccc(-c2ccc(C(=O)N[C@@H](CC(=O)O)C(=O)O)c(OCC)c2)o1)[C@@H](CC)N(C=O)OC(=O)NC(C)(C)c1ccccc1` were < 3.98 µM, < 1 µM and “Metabolite_Detected”.
Turning to `CCCCC[C@@H](C(=O)NCNC(=O)c1ccc(-c2cc(OCC)cc(P(=O)(O)O)c2)o1)[C@@H](CC)N(C=O)OC(=O)c1ccc2c(c1)N(C)CCO2.N.N`, the Drug metabolism entry in data set [5] is “Metabolite_Detected”. For the same compound, the IC50 in data set [2] is < 3.98 µM.
Turning to `CCCCC[C@@H](C(=O)NCNC(=O)c1ccc(-c2cc(OCC)cc(P(=O)(O)O)c2)o1)[C@@H](CC)N(C=O)OC(=O)c1ccc(OC)cc1`, in data set [5], the Drug metabolism result was “Metabolite_Detected”. For the same compound, the values for the IC50 in data set [2] and in data set [3] were < 3.98 µM and < 1 µM, respectively.
In the case of `CCCCC[C@@H](C(=O)NCNC(=O)c1ccc(-c2ccc(C(=O)N[C@@H](CC(=O)O)C(=O)O)c(OCC)c2)o1)[C@@H](CC)N(C=O)OC(=O)c1ccc(O)cc1`, the figures for the IC50 in data set [2] and in data set [3] were < 3.98 µM and < 1 µM, respectively. Also, in data set [4], the Drug metabolism result is “Metabolite_Detected”.
Taken in the same sequence, the figures for `CCCCC[C@@H](C(=O)NCNC(=O)c1ccc(-c2ccc(C(=O)N[C@@H](CC(=O)O)C(=O)O)c(OCC)c2)o1)[C@@H](CC)N(C=O)OC(=O)c1ccc(OC)cc1OC` were < 3.98 µM, < 1 µM and “Metabolite_Detected”.
In the same order, the values of `CCCCC[C@@H](C(=O)NCNC(=O)c1ccc(-c2ccc(C(=O)N[C@@H](CC(=O)O)C(=O)O)c(OCC)c2)o1)[C@@H](CC)N(C=O)OC(=O)c1ccccc1C(C)C` are < 3.98 µM, < 1 µM and “Metabolite_Detected”.
Turning to `CCCCC[C@@H](C(=O)NCNC(=O)c1ccc(-c2cc(OCC)cc(P(=O)(O)O)c2)o1)[C@@H](CC)N(C=O)OC(=O)c1ccc(OC)cc1C(C)C`, the Drug metabolism entry in data set [5] was “Metabolite_Detected”. In data set [2], the IC50 was < 3.98 µM.
In the case of `CCCCC[C@@H](C(=O)NCNC(=O)c1ccc(-c2cc(OCC)cc(P(=O)(O)O)c2)o1)[C@@H](CC)N(C=O)OC(=O)c1ccc(OC)cc1C.N.N`, the Drug metabolism result in data set [5] is listed as “Metabolite_Detected”. Moreover, in data set [2], the IC50 is < 3.98 µM.
With `CCCCC[C@@H](C(=O)NCNC(=O)c1ccc(-c2ccc(C(=O)N[C@@H](CC(=O)O)C(=O)O)c(OCC)c2)o1)[C@@H](CC)N(C=O)OC(=O)c1ccc(OC)cc1F`, the results for the IC50 in data set [2] and in data set [3] were < 3.98 µM and < 1 µM, respectively. Moreover, the Drug metabolism result in data set [4] is on record as “Metabolite_Detected”.
In the case of `CCCCC[C@@H](C(=O)NCNC(=O)c1ccc(-c2ccc(C(=O)N[C@@H](CC(=O)O)C(=O)O)c(OCC)c2)o1)[C@@H](CC)N(C=O)OC(=O)c1cccc(-n2cccc2)c1`, the figures for the IC50 in data set [2] and in data set [3] were < 3.98 µM and < 1 µM, respectively. For the same compound, the Drug metabolism result in data set [4] is given as “Metabolite_Detected”.
In the case of `CCCCC[C@@H](C(=O)NCNC(=O)c1ccc(-c2ccc(C(=O)N[C@@H](CC(=O)O)C(=O)O)c(OCC)c2)o1)[C@@H](CC)N(C=O)OC(=O)c1ccc(OC)cc1C(F)(F)F`, the IC50 in data set [2] was < 3.98 µM; in data set [3] it was < 1 µM. Moreover, in data set [4], the Drug metabolism entry is reported as “Metabolite_Detected”.
Regarding `CCCCC[C@@H](C(=O)NCNC(=O)c1ccc(-c2cc(OCC)cc(P(=O)(O)O)c2)o1)[C@@H](CC)N(C=O)OC(=O)c1ccc(N2CCCC2)c(F)c1.N.N`, in data set [5], the Drug metabolism entry is listed as “Metabolite_Detected”. Further, the IC50 in data set [2] was < 3.98 µM.
`CCCCC[C@@H](C(=O)NCNC(=O)c1ccc(-c2ccc(C(=O)N[C@@H](CC(=O)O)C(=O)O)c(OCC)c2)o1)[C@@H](CC)N(C=O)OC(=O)c1ccc(N2CCCC2)c(F)c1.N.N`: the IC50 was < 3.98 µM in data set [2] and < 1 µM in data set [3]. Besides, the Drug metabolism entry in data set [4] is “Metabolite_Detected”.
In the case of `CCCCC[C@@H](C(=O)NCNC(=O)c1ccc(-c2cc(OCC)cc(P(=O)(O)O)c2)o1)[C@@H](CC)N(C=O)OC(=O)c1ccc(N2CCOCC2)cc1C.N.N`, the Drug metabolism entry in data set [5] is “Metabolite_Detected”. Moreover, the IC50 in data set [2] is < 3.98 µM.
In the case of `CCCCC[C@@H](C(=O)NCNC(=O)c1ccc(-c2ccc(C(=O)N[C@@H](CC(=O)O)C(=O)O)c(OCC)c2)o1)[C@@H](CC)N(C=O)OC(=O)OC(C)(C)C`, the IC50 in data set [2] is < 3.98 µM; in data set [3], < 1 µM. In data set [4], the Drug metabolism result is given as “Metabolite_Detected”.
On to `CCCCC[C@@H](C(=O)NCNC(=O)c1ccc(-c2ccc(C(=O)N[C@@H](CC(=O)O)C(=O)O)c(OCC(=O)O)c2)o1)[C@@H](CC)N(C=O)OCOP(=O)(O)O`, for which the Drug metabolism result in data set [1] is reported as “Metabolite_Detected”; in data set [6], > 10%.
On to `CCCCC[C@@H](C(=O)NCNC(=O)c1ccc(-c2ccc(C(=O)N[C@@H](CC(=O)O)C(=O)O)c(OCC)c2)o1)[C@@H](CC)N(C=O)OC(=O)c1c(C)ccnc1C`, for which the values for the IC50 in data set [2] and in data set [3] were < 3.98 µM and < 1 µM, respectively. In addition, the Drug metabolism result in data set [4] was “Metabolite_Detected”.
Regarding `CCCCC[C@@H](C(=O)NCNC(=O)c1ccc(-c2cc(OCC)cc(P(=O)(O)O)c2)o1)[C@@H](CC)N(C=O)OC(=O)OC(C)(C)C`, in data set [5], the Drug metabolism result is “Metabolite_Detected”. Further, the figures for the IC50 in data set [2] and in data set [3] were < 3.98 µM and < 1 µM, respectively.
As to `CCCCC[C@@H](C(=O)NCNC(=O)c1ccc(-c2cc(OCC)cc(P(=O)(O)O)c2)o1)[C@@H](CC)N(C=O)OC(=O)NC(C)C`, the Drug metabolism entry in data set [5] was “Metabolite_Detected”. The IC50 in data set [2] is < 3.98 µM.
For `CCCCC[C@@H](C(=O)NCNC(=O)c1ccc(-c2ccc(C(=O)N[C@@H](CC(=O)O)C(=O)O)c(OCC)c2)o1)[C@@H](CC)N(C=O)OC(=O)c1ccc(C(F)(F)F)cc1C`, the IC50 in data set [2] was < 3.98 µM; in data set [3], < 1 µM. In addition, the Drug metabolism entry in data set [4] is recorded as “Metabolite_Detected”.
With `CCCCC[C@@H](C(=O)NCNC(=O)c1ccc(-c2ccc(C(=O)N[C@@H](CC(=O)OCOC(=O)C(C)C)C(=O)OCOC(=O)C(C)C)c(OCC)c2)o1)[C@@H](CC)N(O)C=O`, the IC50 in data set [2] was < 3.98 µM; in data set [3], < 1 µM. Further, in data set [4], the Drug metabolism entry was “Metabolite_Detected”.
`CCCCC[C@@H](C(=O)NCNC(=O)c1ccc(-c2cc(OCC)cc(P(=O)(O)O)c2)o1)[C@@H](CC)N(C=O)OC(=O)c1c(C)cccc1OCOP(=O)(O)O.N.N.N.N`: in data set [5], the Drug metabolism entry is “Metabolite_Detected”. Further, the IC50 in data set [2] was < 3.98 µM.
Turning to `CCCCC[C@@H](C(=O)NCNC(=O)c1ccc(-c2ccc(C(=O)N[C@@H](CC(=O)O)C(=O)O)c(OCC(=O)O)c2)o1)[C@@H](CC)N(C=O)OC(=O)C(CC)CC`, the Drug metabolism entry in data set [1] is listed as “Metabolite_Detected”. For the same compound, the IC50 in data set [2] is < 3.98 µM; in data set [3], < 1 µM.
